Experimental data: patent publication US10946017B2, “Tank-binding kinase-1 PROTACs and associated methods of use” (Arvinas Operations, Inc., priority 2015, dated 2021)

Assays:
TBK1 [1] = biological target: T1, TBK1 (Homo sapiens (Human), UniProt Q9UHD2); assay: In vitro TBK1 degradation assay, Panc02.13 cells (compounds 3-33), immunoblot; type: cell-based; conditions: TBK1 degradation, Panc02.13 cells, 16 h, mean of ≥ 2 determinations; for DC50: read-out: DC50 (concentration at which 50% degradation is observed)
Procedure: In vitro degradation assay protocol for compounds 3-33: Panc02.13 cells were purchased from ATCC and cultured in RPMI-1640 (Gibco), supplemented with 15% FBS (ATCC) and 10 Units/mL human recombinant insulin (Gibco). PROTAC treatments were carried out in 12-well plates for 16 h. TLR3 agonist Poly I:C (Invivogen; tlr1-pic) was added for the final 3 h. Cells were harvested, and lysed in RIPA buffer (50 mM Tris pH8, 150 mM NaCl, 1% Tx-100, 0.1% SDS, 0.5% Sodium Deoxycholate) supplemented with protease and phosphatase inhibitors. Lysates were clarified at 16,000 g for 10 minutes, and supernatants were separated by SDS-PAGE. Immunoblotting was performed using standard protocols. The antibodies used were TBK1 (Cell Signaling#3504), pIRF3 (abcam#ab76493), and GAPDH (Cell Signaling#5174).

[2] = biological target: Von Hippel-Lindau (VHL) E3 ligase (Homo sapiens (Human), UniProt P40337); assay: VHL binding, FP assay; conditions: affinity of the VHL ligand component with side chain R2
TBK1 [3] = biological target: T1, TBK1; assay: In vitro TBK1 degradation assay, MDA MB 231 cells (compounds 34-57), immunoblot; type: cell-based; conditions: 1 uM compound, 16 h, read-out: % TBK1 remaining at 1 uM Cmpd
Procedure: MDA MB 231 cells were purchased from ATCC and cultured in RPMI-1640 (Gibco), supplemented with 10% FBS (Gibco). PROTAC treatments were carried out in 24-well plates for 16 h. Cells were harvested, and lysed in RIPA buffer (50 mM Tris pH8, 150 mM NaCl, 1% Tx-100, 0.1% SDS, 0.5% Sodium Deoxycholate) supplemented with protease and phosphatase inhibitors. Lysates were clarified at 16,000 g for 10 minutes, and supernatants were separated by SDS-PAGE. Immunoblotting was performed using standard protocols. The antibodies used were TBK1 (Cell Signaling#3504) and GAPDH (Cell Signaling#5174).

T1 sequence (Q9UHD2 whole entry): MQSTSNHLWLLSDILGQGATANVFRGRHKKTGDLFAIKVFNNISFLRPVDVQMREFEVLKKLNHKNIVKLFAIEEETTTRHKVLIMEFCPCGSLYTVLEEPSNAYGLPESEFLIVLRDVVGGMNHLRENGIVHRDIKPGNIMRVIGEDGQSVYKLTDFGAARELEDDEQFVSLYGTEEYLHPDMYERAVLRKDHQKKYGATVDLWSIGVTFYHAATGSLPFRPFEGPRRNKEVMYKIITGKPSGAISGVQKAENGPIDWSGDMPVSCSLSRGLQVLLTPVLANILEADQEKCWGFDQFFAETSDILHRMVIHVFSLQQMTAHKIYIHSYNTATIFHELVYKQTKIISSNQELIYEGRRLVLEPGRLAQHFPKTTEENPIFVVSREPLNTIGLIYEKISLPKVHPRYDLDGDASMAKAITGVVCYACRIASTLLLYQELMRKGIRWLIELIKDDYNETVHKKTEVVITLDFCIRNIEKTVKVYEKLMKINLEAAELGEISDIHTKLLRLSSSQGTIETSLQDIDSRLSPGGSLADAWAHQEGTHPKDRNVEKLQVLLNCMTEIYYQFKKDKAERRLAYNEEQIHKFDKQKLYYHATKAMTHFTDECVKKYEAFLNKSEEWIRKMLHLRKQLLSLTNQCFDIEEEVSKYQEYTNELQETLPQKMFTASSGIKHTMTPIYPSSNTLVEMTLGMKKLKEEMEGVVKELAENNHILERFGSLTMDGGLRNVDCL
Von Hippel-Lindau (VHL) E3 ligase, sequence (P40337 whole entry, looked up): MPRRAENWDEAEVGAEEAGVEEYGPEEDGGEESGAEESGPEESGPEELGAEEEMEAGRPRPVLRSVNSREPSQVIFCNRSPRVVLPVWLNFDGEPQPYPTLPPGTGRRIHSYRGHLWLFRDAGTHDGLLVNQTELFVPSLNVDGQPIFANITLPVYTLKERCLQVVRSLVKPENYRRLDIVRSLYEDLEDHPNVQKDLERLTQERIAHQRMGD
Von Hippel-Lindau (VHL) E3 ligase, sequence (Q15370 whole entry partner, looked up): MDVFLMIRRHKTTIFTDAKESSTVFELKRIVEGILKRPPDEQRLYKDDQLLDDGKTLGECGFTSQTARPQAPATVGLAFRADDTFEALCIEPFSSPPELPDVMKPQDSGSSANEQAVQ
Von Hippel-Lindau (VHL) E3 ligase, sequence (Q15369 whole entry partner, looked up): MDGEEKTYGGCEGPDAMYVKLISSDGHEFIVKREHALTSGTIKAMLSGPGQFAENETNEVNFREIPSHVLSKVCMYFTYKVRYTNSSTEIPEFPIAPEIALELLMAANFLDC

`Cc1ncsc1-c1ccc(CNC(=O)[C@@H]2C[C@@H](O)CN2C(=O)[C@@H](NC(=O)CCCCCOCCOc2ccc(Nc3ncc(Br)c(NCCCN(C)C(=O)C4CCC4)n3)cc2)C(C)(C)C)cc1` [Compound 5] showed a DC50 (TBK1 [1]) of over 1000 nM.
With `Cc1ncsc1-c1ccc(CNC(=O)[C@@H]2C[C@@H](O)CN2C(=O)[C@@H](NC(=O)COCCCOCCCOc2ccc(Nc3ncc(Br)c(NCCCN(C)C(=O)C4CCC4)n3)cc2)C(C)(C)C)cc1` [Compound 6] the DC50 (TBK1 [1]) was over 1000 nM.
In the case of `Cc1ncsc1-c1ccc(CNC(=O)[C@@H]2C[C@@H](O)CN2C(=O)[C@@H](NC(=O)COCCOCCOCCOc2ccc(Nc3ncc(Br)c(NCCCN(C)C(=O)C4CCC4)n3)cc2)C(C)(C)C)cc1` [Compound 7], the DC50 (TBK1 [1]) is reported as over 1000 nM.
With `Cc1ncsc1-c1ccc(CNC(=O)[C@@H]2C[C@@H](O)CN2C(=O)[C@@H](NC(=O)COCCCOCCCCCOc2ccc(Nc3ncc(Br)c(NCCCN(C)C(=O)C4CCC4)n3)cc2)C(C)(C)C)cc1` [Compound 8] the “Dmax (maximal degradation observed)” value (TBK1 [1]) was 79% and the DC50 (TBK1 [1]) was 88 nM.
With `Cc1ncsc1-c1ccc(CNC(=O)[C@@H]2C[C@@H](O)CN2C(=O)[C@@H](NC(=O)COCCOCCOCCCCOc2ccc(Nc3ncc(Br)c(NCCCN(C)C(=O)C4CCC4)n3)cc2)C(C)(C)C)cc1` [Compound 9] the “Dmax (maximal degradation observed)” value (TBK1 [1]) was 86% and the DC50 (TBK1 [1]) was 71 nM.
With `Cc1ncsc1-c1ccc(CNC(=O)[C@@H]2C[C@@H](O)CN2C(=O)[C@@H](NC(=O)COCCOCCOCCOCCOc2ccc(Nc3ncc(Br)c(NCCCN(C)C(=O)C4CCC4)n3)cc2)C(C)(C)C)cc1` [Compound 10] the “Dmax (maximal degradation observed)” value (TBK1 [1]) was 92% and the DC50 (TBK1 [1]) was 103 nM.
In the case of `Cc1ncsc1-c1ccc(CNC(=O)[C@@H]2C[C@@H](O)CN2C(=O)[C@@H](NC(=O)CCCCCOCCCCOCCCCOc2ccc(Nc3ncc(Br)c(NCCCN(C)C(=O)C4CCC4)n3)cc2)C(C)(C)C)cc1` [Compound 12], the “Dmax (maximal degradation observed)” value (TBK1 [1]) is reported as 90% and the DC50 (TBK1 [1]) is reported as 95 nM.
For `Cc1ncsc1-c1ccc(CNC(=O)[C@@H]2C[C@@H](O)CN2C(=O)[C@@H](NC(=O)COCCOCCOCCOCCOCCOc2ccc(Nc3ncc(Br)c(NCCCN(C)C(=O)C4CCC4)n3)cc2)C(C)(C)C)cc1` [Compound 13], the “Dmax (maximal degradation observed)” value (TBK1 [1]) was 96% and the DC50 (TBK1 [1]) was 29 nM.
For `Cc1ncsc1-c1ccc(CNC(=O)[C@@H]2C[C@@H](O)CN2C(=O)[C@@H](NC(=O)COCCOCCCCOCCCCOCCOc2ccc(Nc3ncc(Br)c(NCCCN(C)C(=O)C4CCC4)n3)cc2)C(C)(C)C)cc1` [Compound 14], the “Dmax (maximal degradation observed)” value (TBK1 [1]) was 96% and the DC50 (TBK1 [1]) was 6 nM.
With `Cc1ncsc1-c1ccc(CNC(=O)[C@@H]2C[C@@H](O)CN2C(=O)[C@@H](NC(=O)CCOCCCOCCCOCCCOCCCOc2ccc(Nc3ncc(Br)c(NCCCN(C)C(=O)C4CCC4)n3)cc2)C(C)(C)C)cc1` [Compound 15] the “Dmax (maximal degradation observed)” value (TBK1 [1]) was 96% and the DC50 (TBK1 [1]) was 25 nM.
With `Cc1ncsc1-c1ccc(CNC(=O)[C@@H]2C[C@@H](O)CN2C(=O)[C@@H](NC(=O)COCCOCCOCCOCCOCCOCCOc2ccc(Nc3ncc(Br)c(NCCCN(C)C(=O)C4CCC4)n3)cc2)C(C)(C)C)cc1` [Compound 16] the “Dmax (maximal degradation observed)” value (TBK1 [1]) was 96% and the DC50 (TBK1 [1]) was 34 nM.
`Cc1ncsc1-c1ccc(CNC(=O)[C@@H]2C[C@@H](O)CN2C(=O)[C@@H](NC(=O)COCCOCCCCOCCCCOCCOCCOc2ccc(Nc3ncc(Br)c(NCCCN(C)C(=O)C4CCC4)n3)cc2)C(C)(C)C)cc1` [Compound 17] was tested, and the “Dmax (maximal degradation observed)” value (TBK1 [1]) was 96% and the DC50 (TBK1 [1]) was 3 nM.
With `Cc1ncsc1-c1ccc(CNC(=O)[C@@H]2C[C@@H](O)CN2C(=O)CNC(=O)COCCCOCCCCOCCCOc2ccc(Nc3ncc(Br)c(NCCCN(C)C(=O)C4CCC4)n3)cc2)cc1` [Compound 29] the “Dmax (maximal degradation observed)” value (TBK1 [1]) was 0%, the DC50 (TBK1 [1]) was over 1000 nM and the IC50 [2] was 106 µM.
`Cc1ncsc1-c1ccc(CNC(=O)[C@@H]2C[C@@H](O)CN2C(=O)[C@H](C)NC(=O)COCCCOCCCCOCCCOc2ccc(Nc3ncc(Br)c(NCCCN(C)C(=O)C4CCC4)n3)cc2)cc1` [Compound 30] was tested, and the “Dmax (maximal degradation observed)” value (TBK1 [1]) was 34%, the DC50 (TBK1 [1]) was over 1000 nM and the IC50 [2] was 23.6 µM.
In the case of `Cc1ncsc1-c1ccc(CNC(=O)[C@@H]2C[C@@H](O)CN2C(=O)[C@H](C(C)C)N2Cc3ccccc3C2=O)c(OCCOCCOc2ccc(Nc3ncc(Br)c(NCCCN(C)C(=O)C4CCC4)n3)cc2)c1` [Compound 34], the remaining activity at 1 µM (TBK1 [3]) is reported as 41 to 80%.
Compound `Cc1ncsc1-c1ccc(CNC(=O)[C@@H]2C[C@@H](O)CN2C(=O)[C@H](C(C)C)N2Cc3ccccc3C2=O)c(OCCOCCOCCOc2ccc(Nc3ncc(Br)c(NCCCN(C)C(=O)C4CCC4)n3)cc2)c1` [Compound 35] has a remaining activity at 1 µM (TBK1 [3]) of at least 81%.
`Cc1ncsc1-c1ccc(CNC(=O)[C@@H]2C[C@@H](O)CN2C(=O)[C@H](C(C)C)N2Cc3ccccc3C2=O)c(OCCOCCOCCOCCOc2ccc(Nc3ncc(Br)c(NCCCN(C)C(=O)C4CCC4)n3)cc2)c1` [Compound 36] was tested, and the remaining activity at 1 µM (TBK1 [3]) was at least 81%.
Work on `Cc1ncsc1-c1ccc(CNC(=O)[C@@H]2C[C@@H](O)CN2C(=O)[C@H](C(C)C)N2Cc3ccccc3C2=O)c(OCCOCCOCCOCCOCCOCCOc2ccc(Nc3ncc(Br)c(NCCCN(C)C(=O)C4CCC4)n3)cc2)c1` [Compound 37] yielded a remaining activity at 1 µM (TBK1 [3]) of at least 81%.
In the case of `Cc1ncsc1-c1ccc(CNC(=O)[C@@H]2C[C@@H](O)CN2C(=O)[C@H](C(C)C)N2Cc3ccccc3C2=O)c(OCCOCCOCCOCCOCCOc2ccc(Nc3ncc(Br)c(NCCCN(C)C(=O)C4CCC4)n3)cc2)c1` [Compound 38], the remaining activity at 1 µM (TBK1 [3]) is reported as at least 81%.
In the case of `Cc1ncsc1-c1ccc(CNC(=O)[C@@H]2C[C@@H](O)CN2C(=O)[C@H](C(C)C)N2Cc3ccccc3C2=O)c(OCCCCOc2ccc(Nc3ncc(Br)c(NCCCN(C)C(=O)C4CCC4)n3)cc2)c1` [Compound 39], the remaining activity at 1 µM (TBK1 [3]) is reported as at least 81%.
With `Cc1ncsc1-c1ccc(CNC(=O)[C@@H]2C[C@@H](O)CN2C(=O)[C@H](C(C)C)N2Cc3ccccc3C2=O)c(OCCCCOCCCCOc2ccc(Nc3ncc(Br)c(NCCCN(C)C(=O)C4CCC4)n3)cc2)c1` [Compound 40] the remaining activity at 1 µM (TBK1 [3]) was at least 81%.
With `Cc1ncsc1-c1ccc(CNC(=O)[C@@H]2C[C@@H](O)CN2C(=O)[C@H](C(C)C)N2Cc3ccccc3C2=O)c(OCCCOCCCOc2ccc(Nc3ncc(Br)c(NCCCN(C)C(=O)C4CCC4)n3)cc2)c1` [Compound 41] the remaining activity at 1 µM (TBK1 [3]) was at least 81%.
In the case of `Cc1ncsc1-c1ccc(CNC(=O)[C@@H]2C[C@@H](O)CN2C(=O)[C@H](C(C)C)N2Cc3ccccc3C2=O)c(OCCOCCOCCCOCCOCCOc2ccc(Nc3ncc(Br)c(NCCCN(C)C(=O)C4CCC4)n3)cc2)c1` [Compound 42], the remaining activity at 1 µM (TBK1 [3]) is reported as 41 to 80%.
With `Cc1ncsc1-c1ccc(CNC(=O)[C@@H]2C[C@@H](O)CN2C(=O)[C@H](C(C)C)N2Cc3ccccc3C2=O)c(OCCOCCCOc2ccc(Nc3ncc(Br)c(NCCCN(C)C(=O)C4CCC4)n3)cc2)c1` [Compound 43] the remaining activity at 1 µM (TBK1 [3]) was 41 to 80%.
With `Cc1ncsc1-c1ccc(CNC(=O)[C@@H]2C[C@@H](O)CN2C(=O)[C@H](C(C)C)N2Cc3ccccc3C2=O)c(OCCCOCCCCOCCCOc2ccc(Nc3ncc(Br)c(NCCCN(C)C(=O)C4CCC4)n3)cc2)c1` [Compound 44] the remaining activity at 1 µM (TBK1 [3]) was 41 to 80%.
In the case of `Cc1ncsc1-c1ccc(CNC(=O)[C@@H]2C[C@@H](O)CN2C(=O)[C@H](C(C)C)N2Cc3ccccc3C2=O)c(OCCOCCOCCCCOCCOCCOc2ccc(Nc3ncc(Br)c(NCCCN(C)C(=O)C4CCC4)n3)cc2)c1` [Compound 45], the remaining activity at 1 µM (TBK1 [3]) is reported as 41 to 80%.
In the case of `Cc1ncsc1-c1ccc(CNC(=O)[C@@H]2C[C@@H](O)CN2C(=O)[C@H](C(C)C)N2Cc3ccccc3C2=O)c(OCCCOCCCOCCOc2ccc(Nc3ncc(Br)c(NCCCN(C)C(=O)C4CCC4)n3)cc2)c1` [Compound 46], the remaining activity at 1 µM (TBK1 [3]) is reported as 41 to 80%.
Work on `Cc1ncsc1-c1ccc(CNC(=O)[C@@H]2C[C@@H](O)CN2C(=O)[C@H](C(C)C)N2Cc3ccccc3C2=O)c(OCCCOCCCOCCOCCCOCCCOc2ccc(Nc3ncc(Br)c(NCCCN(C)C(=O)C4CCC4)n3)cc2)c1` [Compound 48] yielded a remaining activity at 1 µM (TBK1 [3]) of 0 to 40%.
With `Cc1cnc(Nc2cccc(OCCCOCCCCOCCCOCC(=O)N[C@H](C(=O)N3C[C@H](O)C[C@H]3C(=O)NCc3ccc(-c4scnc4C)cc3)C(C)(C)C)c2)nc1NCCCN(C)C(=O)C1CCC1` [Compound 50] the remaining activity at 1 µM (TBK1 [3]) was at least 81%.
`Cc1ncsc1-c1ccc(CNC(=O)[C@@H]2C[C@@H](O)CN2C(=O)[C@@H](NC(=O)COCCCOCCCCOCCCOc2cccc(Nc3ncc(C4CC4)c(NCCCN(C)C(=O)C4CCC4)n3)c2)C(C)(C)C)cc1` [Compound 51] was tested, and the remaining activity at 1 µM (TBK1 [3]) was at least 81%.
Compound `CCc1cnc(Nc2cccc(OCCCOCCCCOCCCOCC(=O)N[C@H](C(=O)N3C[C@H](O)C[C@H]3C(=O)NCc3ccc(-c4scnc4C)cc3)C(C)(C)C)c2)nc1NCCCN(C)C(=O)C1CCC1` [Compound 52] has a remaining activity at 1 µM (TBK1 [3]) of at least 81%.
`Cc1ncsc1-c1ccc(CNC(=O)[C@@H]2C[C@@H](O)CN2C(=O)[C@@H](NC(=O)COCCCOCCCCOCCCOc2cccc(Nc3ncc4c(n3)N(CCCN(C)C(=O)C3CCC3)CC4)c2)C(C)(C)C)cc1` [Compound 53] gave a remaining activity at 1 µM (TBK1 [3]) of at least 81%.
Work on `C=Cc1cnc(Nc2cccc(OCCCOCCCCOCCCOCC(=O)N[C@H](C(=O)N3C[C@H](O)C[C@H]3C(=O)NCc3ccc(-c4scnc4C)cc3)C(C)(C)C)c2)nc1NCCCN(C)C(=O)C1CCC1` [Compound 54] yielded a remaining activity at 1 µM (TBK1 [3]) of 41 to 80%.
